Data as given in patent publication US9757360B2, “Pharmaceutical composition comprising a ryanodine receptor antagonist for facilitating wound healing” (SZEGEDI TUDOMÁNYEGYETEM, priority 2013, dated 2017).

Experiments:
[1] = tested on: blood flow of the wound area; test: Laser-Doppler flowmetry of the wound area; type: in vivo, SKH-1 hairless mice; conditions: day 1 after wound creation; 200 μL dantrolene solution, measured 10 minutes later; 11 mm wound
Method: (§1) The experiments were performed on male SKH-1 hairless mice of our own rearing (body weight: 36-44 g). Procedures and protocols were approved by the competent authorities (license number: V./145/2013.). Only healthy animals free of any type of injury were used, mice with any sign of disorders were discarded. Prior to the interventions the animals were anesthetized with a mixture of ketamine (Sigma) (90 mg/kg) and xylazine (Sigma) (25 mg/kg) administered intraperitoneally. A skin fold was formed in the dorsal region and was fixed with two symmetrical, fenestrated titanium plates (IROLA GmbH, Schonach, Germany) according to the description of Sorg et al. (Sorg et al., 2007).
(§2) In the midline of the dorsal region two holding stitches were placed in order to form a skin fold. This skin fold was sandwiched by two symmetrical, fenestrated titanium plates. The plates were fixed with sutures, bolts and nuts. On one side of the skin fold, a circular full-thickness wound was made by removing the tissue down to muscle layer of the other side (the diameter of the wound was 4 mm while those of used for Laser-Doppler flowmetry came to 11 mm). The wound was covered with a glass coverslip incorporated into the window of the titanium frame. The glass was removed for the duration of treatments and measurements only. […]

[2] = tested on: epidermal barrier function; conditions: cited from earlier work
[3] = tested on: full-thickness dermal wound; test: Macroscopic wound closure of full-thickness dermal wounds in a dorsal skin fold chamber (photo documentation); type: in vivo, SKH-1 hairless mice; conditions: for Rate of wound closure vs control group: 100 μM topical once a day
Source text: In our experiments, we have studied the effects of dantrolene on different parameters of wound healing. SKH-1 hairless male mice were used in the experiments. Full-thickness wound was made in a dorsal skin fold. The effects of dantrolene or saline (control group) on wound healing were monitored by means of photo documentation, intravital videomicroscopy (IVM) and laser Doppler flowmetry. The experimental setup was in accordance with the model described by Sorg et al. (Sorg et al., 2007). Wounds were treated daily either with dantrolene or with saline.
as §1, §2
Macroscopic wound closure. […] The images were evaluated with a software developed by our working group (DermAssess©). […]

[4] = tested on: microcirculation of the wound edges; test: Intravital videomicroscopy (IVM) of the microcirculation of the wound edges; type: in vivo, SKH-1 hairless mice; conditions: 100 μM topical once a day
Method: as §1
In the midline of the dorsal region two holding stitches were placed in order to form a skin fold. This skin fold was sandwiched by two symmetrical, fenestrated titanium plates. The plates were fixed with sutures, bolts and nuts. On one side of the skin fold, a circular full-thickness wound was made by removing the tissue down to muscle layer of the other side (the diameter of the wound was 4 mm while those of used for Laser-Doppler flowmetry came to 11 mm). The wound was covered with a glass coverslip incorporated into the window of the titanium frame. The glass was removed for the duration of treatments and measurements only. In the control group (n=6), the wounds were treated with 100 μL of sterile saline once a day while in the dantrolene-treated group (n=6) 100 μL of a solution containing the sodium salt of dantrolene (100 μM) was applied to the wound once a day (the salt was dissolved in sterile saline). The observation period took 20 days (according to our previous results this is the time period needed for approximately 100% closure of wounds of 4 mm).
Intravital videomicroscopy (IVM). Microcirculation of the wound edges was monitored by means of IVM on days 4, 8 and 12. After anesthesia, 80 μL of a solution of fluorescein-isothyocyanate (FITC) labeled dextrane (2%) and also 80 μL of a solution of rhodamine-6G was administered retrobulbar. These contrast materials allow us to visualize microcirculation and leukocyte-endothelial interactions at the appropriate wavelengths. Video records of the microcirculation were evaluated off-line with Pictron IVM software. Red blood cell velocity (RBCV) was determined in the capillaries, the diameter of each vessel in the evaluated fields-of-view was measured (only diameters above 6 μm were considered) and sticking leukocytes were counted in the postcapillary venules (this parameter is relative to the area of the vessel wall and is given as cell/μm2).
Control- and dantrolene-treated groups were compared with the Mann-Whitney test and p<0.05 was considered statistically significant.

[5] = tested on: full-thickness dermal wound; test: Histology of excised wounds (epithelialization zone, dermal regeneration); type: in vivo, SKH-1 hairless mice; conditions: day 4; 100 μM topical once a day
Method: as §1
In the midline of the dorsal region two holding stitches were placed in order to form a skin fold. This skin fold was sandwiched by two symmetrical, fenestrated titanium plates. The plates were fixed with sutures, bolts and nuts. […]
Histology. […] Zone of epithelialization was defined as the extension of epithelial regeneration measured from the wound edges and given as percentage relative to the initial diameter of the wound. Dermal regeneration was determined, too (thickness of dermal connective tissue was measured within the wound area and was given as percentage relative to that of determined in the intact skin). […]

## O=C1CN(/N=C/c2ccc(-c3ccc([N+](=O)[O-])cc3)o2)C(O)=N1 [dantrolene]
[1]
  Blood flow in the wound area after vs before dantrolene treatment: significant elevation
[2]; local application, after removal of the uppermost layer of the epidermis
  Barrier regeneration: accelerates
[2]; mice with barrier function impaired after tape stripping of the upper epidermis
  Transepidermal water loss: ameliorate
[3]; by day 20, 100 μL of 100 μM dantrolene sodium salt solution on the wound once a day, 4 mm wound
  Macroscopic wound closure (decrease in wound area relative to baseline): ~100%
[3]; day 16
  Rate of wound closure vs control group: no difference
[3]; days 4, 8 and 12, p<0.05 vs saline control
  Rate of wound closure vs control group: significantly higher
[4]; day 12
  Number of sticking leukocytes in the postcapillary venules, difference vs control: not statistically significant
[4]; days 4, 8 and 12 (corresponding times)
  Vessel diameters at the wound edges vs control group: considerably higher
[4]; days 4, 8 and 12
  Red blood cell velocity (RBCV) in the capillaries vs control group: higher
[4]; days 4 and 8
  Number of sticking leukocytes in the postcapillary venules vs control: significantly decreased
[5]
  Dermal regeneration vs control group: more expressed
  Extension of epithelialization zone vs control: more extended
